Key:
[1] = biological target: T1, Tyrosine-protein kinase JAK3 (Homo sapiens, UniProt P52333); test: Inhibition of Jak3
T1 sequence (P52333 whole entry): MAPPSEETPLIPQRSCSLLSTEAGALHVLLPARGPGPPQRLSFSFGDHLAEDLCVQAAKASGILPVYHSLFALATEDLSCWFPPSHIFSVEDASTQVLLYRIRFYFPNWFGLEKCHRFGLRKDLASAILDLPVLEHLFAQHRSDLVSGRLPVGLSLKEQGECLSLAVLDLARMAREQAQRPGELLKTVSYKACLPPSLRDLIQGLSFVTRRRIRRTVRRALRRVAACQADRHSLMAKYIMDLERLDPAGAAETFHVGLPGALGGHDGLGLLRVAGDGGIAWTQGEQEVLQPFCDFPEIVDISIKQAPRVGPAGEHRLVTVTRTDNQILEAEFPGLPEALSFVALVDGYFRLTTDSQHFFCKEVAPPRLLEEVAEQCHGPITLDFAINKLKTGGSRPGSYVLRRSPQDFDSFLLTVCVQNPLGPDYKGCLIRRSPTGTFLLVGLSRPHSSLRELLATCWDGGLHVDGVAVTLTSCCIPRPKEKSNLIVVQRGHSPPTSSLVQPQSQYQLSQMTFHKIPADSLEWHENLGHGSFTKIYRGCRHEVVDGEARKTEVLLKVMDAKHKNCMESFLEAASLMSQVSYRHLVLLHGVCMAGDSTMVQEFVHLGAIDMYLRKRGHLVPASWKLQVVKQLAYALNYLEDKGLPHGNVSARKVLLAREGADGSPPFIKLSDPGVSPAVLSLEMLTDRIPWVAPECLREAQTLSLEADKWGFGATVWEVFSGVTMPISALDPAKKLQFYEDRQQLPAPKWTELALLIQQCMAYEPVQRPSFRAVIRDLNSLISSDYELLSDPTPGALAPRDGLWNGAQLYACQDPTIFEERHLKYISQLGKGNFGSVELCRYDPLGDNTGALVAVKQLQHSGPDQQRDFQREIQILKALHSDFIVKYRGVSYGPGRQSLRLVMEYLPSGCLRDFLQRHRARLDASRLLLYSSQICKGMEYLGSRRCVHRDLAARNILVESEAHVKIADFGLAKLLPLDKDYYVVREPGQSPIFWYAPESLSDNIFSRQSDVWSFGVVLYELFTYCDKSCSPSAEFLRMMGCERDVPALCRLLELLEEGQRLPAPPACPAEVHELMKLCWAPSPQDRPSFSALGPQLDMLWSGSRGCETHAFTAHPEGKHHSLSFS

[2] = biological target: Vascular endothelial growth factor receptor 2 (Homo sapiens, UniProt P35968); test: Inhibition of KDR
Sequence of Vascular endothelial growth factor receptor 2 (P35968 whole entry): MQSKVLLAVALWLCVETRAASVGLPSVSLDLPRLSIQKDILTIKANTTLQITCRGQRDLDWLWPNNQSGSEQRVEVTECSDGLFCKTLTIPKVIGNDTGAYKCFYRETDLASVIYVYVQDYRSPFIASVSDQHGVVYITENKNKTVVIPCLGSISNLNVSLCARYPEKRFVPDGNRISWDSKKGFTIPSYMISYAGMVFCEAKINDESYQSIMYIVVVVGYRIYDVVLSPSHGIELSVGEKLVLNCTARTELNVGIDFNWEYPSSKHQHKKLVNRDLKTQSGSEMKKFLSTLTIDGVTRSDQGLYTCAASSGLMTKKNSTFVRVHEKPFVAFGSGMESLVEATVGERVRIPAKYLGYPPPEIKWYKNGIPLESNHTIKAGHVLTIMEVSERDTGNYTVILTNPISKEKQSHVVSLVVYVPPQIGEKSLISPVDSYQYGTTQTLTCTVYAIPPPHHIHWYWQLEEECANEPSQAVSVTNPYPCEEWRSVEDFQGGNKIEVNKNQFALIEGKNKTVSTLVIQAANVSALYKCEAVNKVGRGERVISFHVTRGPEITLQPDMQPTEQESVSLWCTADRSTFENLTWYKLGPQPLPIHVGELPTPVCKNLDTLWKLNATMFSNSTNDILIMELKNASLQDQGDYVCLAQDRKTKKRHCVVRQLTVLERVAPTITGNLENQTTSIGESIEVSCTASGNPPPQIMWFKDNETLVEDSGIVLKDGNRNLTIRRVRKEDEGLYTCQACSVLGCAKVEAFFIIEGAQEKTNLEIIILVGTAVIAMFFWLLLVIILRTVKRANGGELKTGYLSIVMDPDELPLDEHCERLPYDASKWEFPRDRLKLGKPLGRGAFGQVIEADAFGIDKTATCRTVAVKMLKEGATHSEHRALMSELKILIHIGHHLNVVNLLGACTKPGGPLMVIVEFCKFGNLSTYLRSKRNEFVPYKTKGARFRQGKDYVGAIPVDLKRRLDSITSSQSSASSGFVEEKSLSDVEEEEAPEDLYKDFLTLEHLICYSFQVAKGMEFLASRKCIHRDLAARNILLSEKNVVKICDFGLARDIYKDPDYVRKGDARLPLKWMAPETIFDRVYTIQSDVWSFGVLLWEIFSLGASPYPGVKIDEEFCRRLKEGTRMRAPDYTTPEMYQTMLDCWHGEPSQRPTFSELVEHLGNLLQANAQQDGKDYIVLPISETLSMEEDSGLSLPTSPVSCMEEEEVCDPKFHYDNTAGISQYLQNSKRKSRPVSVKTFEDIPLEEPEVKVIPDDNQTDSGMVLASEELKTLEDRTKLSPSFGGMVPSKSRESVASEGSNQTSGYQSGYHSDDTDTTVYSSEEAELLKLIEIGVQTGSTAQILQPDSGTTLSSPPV

Angiopoietin-1 receptor = Angiopoietin-1 receptor (Homo sapiens, UniProt Q02763); test: Inhibition of Tie2
Sequence of Angiopoietin-1 receptor (Q02763 whole entry): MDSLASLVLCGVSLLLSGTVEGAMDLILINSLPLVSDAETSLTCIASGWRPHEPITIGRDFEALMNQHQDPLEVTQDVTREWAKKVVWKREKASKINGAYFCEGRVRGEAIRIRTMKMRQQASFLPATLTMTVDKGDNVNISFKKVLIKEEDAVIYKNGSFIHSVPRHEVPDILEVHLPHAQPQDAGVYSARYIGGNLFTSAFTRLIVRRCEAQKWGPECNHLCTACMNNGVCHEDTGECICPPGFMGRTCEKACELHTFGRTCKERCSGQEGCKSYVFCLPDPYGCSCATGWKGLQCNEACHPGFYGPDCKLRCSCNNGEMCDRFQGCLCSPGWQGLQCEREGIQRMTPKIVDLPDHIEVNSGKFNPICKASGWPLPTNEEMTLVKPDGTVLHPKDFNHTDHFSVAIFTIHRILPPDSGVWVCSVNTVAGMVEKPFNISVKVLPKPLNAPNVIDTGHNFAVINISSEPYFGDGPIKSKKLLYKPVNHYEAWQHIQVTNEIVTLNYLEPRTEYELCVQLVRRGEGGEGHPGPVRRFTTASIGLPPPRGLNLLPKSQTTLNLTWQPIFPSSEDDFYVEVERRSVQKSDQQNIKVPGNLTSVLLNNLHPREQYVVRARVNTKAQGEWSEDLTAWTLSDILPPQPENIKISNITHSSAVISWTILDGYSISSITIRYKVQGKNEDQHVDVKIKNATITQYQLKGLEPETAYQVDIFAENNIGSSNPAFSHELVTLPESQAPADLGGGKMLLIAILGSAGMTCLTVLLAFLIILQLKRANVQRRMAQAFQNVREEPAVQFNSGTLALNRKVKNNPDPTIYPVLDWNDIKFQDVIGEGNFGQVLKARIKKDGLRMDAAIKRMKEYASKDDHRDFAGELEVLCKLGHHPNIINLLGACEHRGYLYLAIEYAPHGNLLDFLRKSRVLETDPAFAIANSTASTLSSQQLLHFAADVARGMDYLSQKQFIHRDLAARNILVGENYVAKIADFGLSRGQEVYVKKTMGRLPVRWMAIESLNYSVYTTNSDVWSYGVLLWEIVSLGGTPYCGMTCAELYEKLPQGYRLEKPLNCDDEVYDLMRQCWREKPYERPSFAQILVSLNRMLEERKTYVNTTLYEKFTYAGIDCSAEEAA

[3] = biological target: Tyrosine-protein kinase Lck (Homo sapiens, UniProt P06239); test: Inhibition of Lck by HTRF assay
Sequence of Tyrosine-protein kinase Lck (P06239 whole entry): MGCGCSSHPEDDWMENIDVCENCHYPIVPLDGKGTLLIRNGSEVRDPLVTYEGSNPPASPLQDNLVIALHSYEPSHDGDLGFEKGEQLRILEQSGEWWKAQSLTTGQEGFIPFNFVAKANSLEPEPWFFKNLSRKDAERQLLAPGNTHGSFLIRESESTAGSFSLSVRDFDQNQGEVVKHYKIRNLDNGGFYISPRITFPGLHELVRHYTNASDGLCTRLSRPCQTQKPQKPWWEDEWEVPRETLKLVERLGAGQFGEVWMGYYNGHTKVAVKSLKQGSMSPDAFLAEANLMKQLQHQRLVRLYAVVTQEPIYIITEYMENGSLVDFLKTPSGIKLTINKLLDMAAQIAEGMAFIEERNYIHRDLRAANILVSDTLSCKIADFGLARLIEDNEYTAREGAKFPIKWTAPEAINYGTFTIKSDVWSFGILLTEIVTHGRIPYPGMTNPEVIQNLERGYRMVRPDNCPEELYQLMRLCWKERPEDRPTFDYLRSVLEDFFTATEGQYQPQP

T-cell = test: Inhibition of T cell activation in human mixed lymphocyte reaction; format: functional, cell-based
[4] = biological target: Mitogen-activated protein kinase 14 (Homo sapiens, UniProt Q16539); test: Inhibition of p38alpha
Sequence of Mitogen-activated protein kinase 14 (Q16539 whole entry): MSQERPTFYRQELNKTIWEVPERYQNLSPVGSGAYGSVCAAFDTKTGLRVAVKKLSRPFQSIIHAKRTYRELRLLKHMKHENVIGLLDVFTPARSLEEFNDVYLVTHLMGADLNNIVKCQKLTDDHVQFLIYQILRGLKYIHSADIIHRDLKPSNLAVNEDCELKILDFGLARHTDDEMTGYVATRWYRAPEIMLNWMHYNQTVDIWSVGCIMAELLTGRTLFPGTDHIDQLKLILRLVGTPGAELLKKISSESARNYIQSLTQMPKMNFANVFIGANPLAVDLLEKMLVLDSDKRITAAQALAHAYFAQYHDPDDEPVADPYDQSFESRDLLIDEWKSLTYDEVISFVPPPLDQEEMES

Question: What does the source list for `COc1nc(NCCCN2CCN(C)CC2)ncc1C(=O)Nc1cc(C(=O)Nc2cccc(C(F)(F)F)c2C)ccc1C`?
Answer: IC50 [1]: > 25000 nM; IC50 [2]: > 25000 nM; IC50 (Angiopoietin-1 receptor): > 25000 nM; IC50 [3]: 19 nM; IC50 (T-cell): 2710 nM

Question: For `COc1nc(NCCN2CCOCC2)ncc1C(=O)Nc1cc(C(=O)Nc2cccc(C(F)(F)F)c2)ccc1C`, which IC50 [1] is on record?
Answer: The IC50 was > 25000 nM.

Question: And the IC50 [2]?
Answer: Its IC50 is 2030 nM.

Question: And the IC50 (Angiopoietin-1 receptor)?
Answer: The IC50 was > 25000 nM.

Question: And the IC50 [3]?
Answer: The IC50 was 22 nM.

Question: What about the IC50 (T-cell) of the same molecule?
Answer: The IC50 was 4920 nM.

Question: For `Cc1ccc(C(=O)Nc2cccc(C(F)(F)F)c2)cc1-c1ccc2nc(N)ncc2c1`, which IC50 (Angiopoietin-1 receptor) is on record?
Answer: Its IC50 is 2 nM.

Question: Which IC50 [1] does the source give for `COc1nc(NC2CCN(C)CC2)ncc1C(=O)Nc1cc(C(=O)Nc2cccc(C(F)(F)F)c2)ccc1C` here?
Answer: The IC50 was > 25000 nM.

Question: And the IC50 [2]?
Answer: The IC50 was > 25000 nM.

Question: And the IC50 (Angiopoietin-1 receptor)?
Answer: Its IC50 is > 25000 nM.

Question: And the IC50 [3]?
Answer: The IC50 was 101 nM.

Question: Which results are given for `CNc1ncc(C(=O)Nc2cc(C(=O)Nc3cccc(C(F)(F)F)c3F)ccc2C)c(OC)n1`?
Answer: IC50 [1]: > 25000 nM; IC50 [2]: > 25000 nM; IC50 (Angiopoietin-1 receptor): > 25000 nM; IC50 [3]: 7 nM; IC50 (T-cell): > 10000 nM; IC50 [4]: 254 nM

Question: Which IC50 [1] does the source give for `COc1nc(Nc2ccc(N3CCN(C)CC3)cc2)ncc1C(=O)Nc1cc(C(=O)Nc2cccc(C(F)(F)F)c2F)ccc1C` here?
Answer: Its IC50 is 334 nM.

Question: What about the IC50 [2] of the same molecule?
Answer: The IC50 was 255 nM.

Question: What about the IC50 (Angiopoietin-1 receptor) of the same molecule?
Answer: The IC50 was 3440 nM.

Question: What about the IC50 [3] of the same molecule?
Answer: Its IC50 is 0.6 nM.

Question: And the IC50 (T-cell)?
Answer: Its IC50 is 107 nM.

Question: And the IC50 [4]?
Answer: Its IC50 is 856 nM.

Question: Which results are given for `CNc1ncc(C(=O)Nc2cc(C(=O)Nc3cccc(C(F)(F)F)c3C)ccc2C)c(OC)n1`?
Answer: IC50 [1]: > 25000 nM; IC50 [2]: > 25000 nM; IC50 (Angiopoietin-1 receptor): > 25000 nM; IC50 [3]: 44 nM; IC50 (T-cell): > 10000 nM; IC50 [4]: > 10000 nM

Question: `CNc1ncc(C(=O)Nc2cc(C(=O)Nc3cccc(C(F)(F)F)c3)ccc2C)c(OC)n1` was tested. Which IC50 [1] did it give?
Answer: The IC50 was > 25000 nM.

Question: And the IC50 [2]?
Answer: The IC50 was 8330 nM.

Question: And the IC50 (Angiopoietin-1 receptor)?
Answer: The IC50 was > 25000 nM.

Question: And the IC50 [3]?
Answer: The IC50 was 53 nM.

Question: What about the IC50 (T-cell) of the same molecule?
Answer: Its IC50 is > 10000 nM.

Question: What about the IC50 [4] of the same molecule?
Answer: Its IC50 is 2720 nM.

Question: Which IC50 [1] does the source give for `COc1nc(NCCCCN(C)C)ncc1C(=O)Nc1cc(C(=O)Nc2cccc(C(F)(F)F)c2C)ccc1C` here?
Answer: The IC50 was > 25000 nM.

Question: And the IC50 [2]?
Answer: The IC50 was > 25000 nM.

Question: And the IC50 (Angiopoietin-1 receptor)?
Answer: The IC50 was > 25000 nM.

Question: And the IC50 [3]?
Answer: Its IC50 is 45 nM.

Question: Which results are given for `CNc1ncc(C(=O)Nc2cc(C(=O)Nc3cccc(C(F)(F)F)c3)ccc2C)c(Oc2ccccc2)n1`?
Answer: IC50 [1]: > 25000 nM; IC50 [2]: > 25000 nM; IC50 (Angiopoietin-1 receptor): > 25000 nM; IC50 [3]: 25 nM; IC50 (T-cell): > 10000 nM

Question: Which results are given for `Cc1ccc(C(=O)Nc2cccc(C(F)(F)F)c2)cc1NC(=O)c1cnc(NCCN2CCOCC2)nc1Oc1ccccc1`?
Answer: IC50 [1]: > 25000 nM; IC50 [2]: > 25000 nM; IC50 (Angiopoietin-1 receptor): > 25000 nM; IC50 [3]: 41 nM; IC50 (T-cell): > 10000 nM

Question: What does the source list for `CNc1ncc(C(=O)Nc2cc(C(=O)Nc3cccc(C(F)(F)F)c3F)ccc2C)c(NC)n1`?
Answer: IC50 [1]: > 25000 nM; IC50 [2]: 6680 nM; IC50 (Angiopoietin-1 receptor): > 25000 nM; IC50 [3]: 84 nM; IC50 [4]: 2.4 nM

Source: ChEMBL document CHEMBL1142332, “N-(3-(phenylcarbamoyl)arylpyrimidine)-5-carboxamides as potent and selective inhibitors of Lck: structure, synthesis and SAR” (Bioorg Med Chem Lett, 2008)
